Test results from ChEMBL document CHEMBL2390942, “Novel 3,5-bis(arylidene)-4-piperidone dimers: potent cytotoxins against colon cancer cells” (Eur J Med Chem, 2013).
Calls of active or inactive are those of the source. The rule behind the calls is not given here.

What was measured:
HT-29 [1] = assay: Ratio of 5-fluorouracil IC50 to compound IC50 for human HT-29 cells after 48 hrs by sulforhodamine B assay; assay type: functional
HT-29 [2] = assay: Cytotoxicity against human HT-29 cells after 48 hrs by sulforhodamine B assay; assay type: functional, cell-based; details: HT-29, 48 h
HCT-116 [3] = assay: Cytotoxicity against human HCT116 cells after 48 hrs by sulforhodamine B assay; assay type: functional, cell-based; details: HCT-116, 48 h
HCT-116 [4] = assay: Ratio of 5-fluorouracil IC50 to compound IC50 for human HCT116 cells after 48 hrs by sulforhodamine B assay; assay type: functional
Mus musculus = assay: Reduction in hepatic glutathione levels in ip dosed mouse relative to control; assay type: functional; design: scale not given: the % may be the effect or the level left
HT-29 [5] = assay: Cell cycle arrest in human HT-29 cells assessed as accumulation at G2/M phase at 1 uM after 48 hrs by propidium iodide staining-based FACS flow cytometric analysis; assay type: functional
HT-29 [6] = assay: Cell cycle arrest in human HT-29 cells assessed as accumulation at S phase at 1 uM after 48 hrs by propidium iodide staining-based FACS flow cytometric analysis; assay type: functional
HCT-116 [7] = assay: Cell cycle arrest in human HCT116 cells assessed as accumulation at S phase at 1 uM after 48 hrs by propidium iodide staining-based FACS flow cytometric analysis; assay type: functional
HCT-116 [8] = assay: Cell cycle arrest in human HCT116 cells assessed as accumulation at G2/M phase at 1 uM after 48 hrs by propidium iodide staining-based FACS flow cytometric analysis; assay type: functional
HCT-116 [9] = assay: Induction of apoptosis in human HCT116 cells assessed as apoptotic cells at 1 uM after 48 hrs by Annexin V-FITC and propidium iodide staining-based FACS flow cytometric analysis (reference value: 2.59%); assay type: functional
HCT-116 [10] = assay: Induction of apoptosis in human HCT116 cells assessed as dead cells at 1 uM after 48 hrs by Annexin V-FITC and propidium iodide staining-based FACS flow cytometric analysis (reference value: 49.93%); assay type: functional
HCT-116 [11] = assay: Induction of apoptosis in human HCT116 cells assessed as live cells at 1 uM after 48 hrs by Annexin V-FITC and propidium iodide staining-based FACS flow cytometric analysis (reference value: 47.40%); assay type: functional
HCT-116 [12] = assay: Induction of apoptosis in human HCT116 cells assessed as apoptotic cells at 1 uM after 24 hrs by Annexin V-FITC and propidium iodide staining-based FACS flow cytometric analysis (reference value: 2.82%); assay type: functional
HCT-116 [13] = assay: Induction of apoptosis in human HCT116 cells assessed as dead cells at 1 uM after 24 hrs by Annexin V-FITC and propidium iodide staining-based FACS flow cytometric analysis (reference value: 38.02%); assay type: functional
HCT-116 [14] = assay: Induction of apoptosis in human HCT116 cells assessed as live cells at 1 uM after 24 hrs by Annexin V-FITC and propidium iodide staining-based FACS flow cytometric analysis (reference value: 59.15%); assay type: functional

Row | SMILES | Ratio IC50 (HT-29 [1]) | IC50 (HT-29 [2]) [nM] | IC50 (HCT-116 [3]) [nM] | Ratio IC50 (HCT-116 [4]) | further results
1 | O=C1/C(=C\c2ccc(O)cc2)CN(C(=O)CC(=O)N2C/C(=C\c3ccc(O)cc3)C(=O)/C(=C/c3ccc(O)cc3)C2)C/C1=C\c1ccc(O)cc1 | 14 | 460 | 720 | 6 | 
2 | O=C(O)/C=C/C(=O)N1C/C(=C\c2ccccc2)C(=O)/C(=C/c2ccccc2)C1 |  |  |  |  | Activity (Mus musculus): 29%
3 | O=c1[nH]cc(F)c(=O)[nH]1 [FLUOROURACIL] | 1 | 6350 | 4520 | 1 | 
4 | O=C1/C(=C\c2ccc(F)cc2)CN(C(=O)CC(=O)N2C/C(=C\c3ccc(F)cc3)C(=O)/C(=C/c3ccc(F)cc3)C2)C/C1=C\c1ccc(F)cc1 | 35 | 180 | 600 | 8 | 
5 | COc1ccc(/C=C2/CN(C(=O)CC(=O)N3C/C(=C\c4ccc(OC)cc4)C(=O)/C(=C/c4ccc(OC)cc4)C3)C/C(=C\c3ccc(OC)cc3)C2=O)cc1 | 8 | 770 | 60 | 75 | 
6 | CN(C)c1ccc(/C=C2\CN(C(=O)C(=O)N3C/C(=C\c4ccc(N(C)C)cc4)C(=O)/C(=C/c4ccc(N(C)C)cc4)C3)C/C(=C\c3ccc(N(C)C)cc3)C2=O)cc1 | 0.34 | 18600 | 27400 | 0.17 | 
7 | COc1ccc(/C=C2\CN(C(=O)C(=O)N3C/C(=C\c4ccc(OC)cc4)C(=O)/C(=C/c4ccc(OC)cc4)C3)C/C(=C\c3ccc(OC)cc3)C2=O)cc1 | 37 | 170 | 20 | 226 | Activity (HT-29 [5]): inactive; Activity (HT-29 [6]): inactive; Activity (HCT-116 [7]): inactive; Activity (HCT-116 [8]): inactive; Activity (HCT-116 [9]): 38.51%; Activity (HCT-116 [10]): 37.82%; Activity (HCT-116 [11]): 24.47%; Activity (HCT-116 [12]): 34.93%; Activity (HCT-116 [13]): 21.63%; Activity (HCT-116 [14]): 44.4%
8 | COc1ccc(/C=C2/CN(C(=O)CC(=O)N3C/C(=C\c4ccc(OC)c(OC)c4)C(=O)/C(=C/c4ccc(OC)c(OC)c4)C3)C/C(=C\c3ccc(OC)c(OC)c3)C2=O)cc1OC | 20 | 310 | 180 | 25 | 
9 | CN(C)c1ccc(/C=C2/CN(C(=O)CC(=O)N3C/C(=C\c4ccc(N(C)C)cc4)C(=O)/C(=C/c4ccc(N(C)C)cc4)C3)C/C(=C\c3ccc(N(C)C)cc3)C2=O)cc1 | <1 | > 25000 | > 25000 | <1 | 
10 | O=C1/C(=C\c2ccccc2)CN(CCCN2C/C(=C\c3ccccc3)C(=O)/C(=C/c3ccccc3)C2)C/C1=C\c1ccccc1 | 3 | 2150 | 680 | 7 | 
11 | O=C1/C(=C/c2ccccc2)CNC/C1=C\c1ccccc1 |  |  |  |  | Activity (Mus musculus): 19%
12 | COc1cc(/C=C2\CN(C(=O)C(=O)N3C/C(=C\c4cc(OC)c(OC)c(OC)c4)C(=O)/C(=C/c4ccc(OC)c(OC)c4OC)C3)C/C(=C\c3cc(OC)c(OC)c(OC)c3)C2=O)cc(OC)c1OC | 24 | 270 | 270 | 17 | 
13 | O=C1/C(=C/c2ccc(Cl)cc2)CN(C(=O)C(=O)N2C/C(=C\c3ccc(Cl)cc3)C(=O)/C(=C/c3ccc(Cl)cc3)C2)C/C1=C\c1ccc(Cl)cc1 | 8 | 780 | 30 | 151 | 
14 | O=C1/C(=C\c2ccc(Cl)c(Cl)c2)CN(C(=O)CC(=O)N2C/C(=C\c3ccc(Cl)c(Cl)c3)C(=O)/C(=C/c3ccc(Cl)c(Cl)c3)C2)C/C1=C\c1ccc(Cl)c(Cl)c1 | 1.1 | 6050 | 26700 | 0.17 | 
15 | Cc1ccc(/C=C2/CN(C(=O)CC(=O)N3C/C(=C\c4ccc(C)cc4)C(=O)/C(=C/c4ccc(C)cc4)C3)C/C(=C\c3ccc(C)cc3)C2=O)cc1 | 32 | 200 | 410 | 11 | 
16 | COc1cc(/C=C/C(=O)CC(=O)/C=C/c2ccc(O)c(OC)c2)ccc1O [CURCUMIN] | 0.48 | 13200 | 11500 | 0.39 | 
17 | COc1cc(/C=C2/CN(C(=O)CC(=O)N3C/C(=C\c4cc(OC)c(OC)c(OC)c4)C(=O)/C(=C/c4cc(OC)c(OC)c(OC)c4)C3)C/C(=C\c3cc(OC)c(OC)c(OC)c3)C2=O)cc(OC)c1OC | 159 | 40 | 20 | 226 | 
18 | Cc1ccc(/C=C2\CN(C(=O)C(=O)N3C/C(=C\c4ccc(C)cc4)C(=O)/C(=C/c4ccc(C)cc4)C3)C/C(=C\c3ccc(C)cc3)C2=O)cc1 | 49 | 129 | 90 | 50 | 
19 | O=C1/C(=C/c2ccccc2)CN(C(=O)C(=O)N2C/C(=C\c3ccccc3)C(=O)/C(=C/c3ccccc3)C2)C/C1=C\c1ccccc1 | 454 | 14 | 40 | 113 | 
20 | O=C1/C(=C/c2ccc(F)cc2)CN(C(=O)C(=O)N2C/C(=C\c3ccc(F)cc3)C(=O)/C(=C/c3ccc(F)cc3)C2)C/C1=C\c1ccc(F)cc1 | 212 | 30 | 20 | 226 | 
21 | COc1ccc(/C=C2\CN(C(=O)C(=O)N3C/C(=C\c4ccc(OC)c(OC)c4)C(=O)/C(=C/c4ccc(OC)c(OC)c4)C3)C/C(=C\c3ccc(OC)c(OC)c3)C2=O)cc1OC | 11 | 568 | 30 | 151 | 
22 | O=C1/C(=C\c2ccc(Cl)cc2)CN(C(=O)CC(=O)N2C/C(=C\c3ccc(Cl)cc3)C(=O)/C(=C/c3ccc(Cl)cc3)C2)C/C1=C\c1ccc(Cl)cc1 | 71 | 90 | 50 | 90 | 
23 | O=C1/C(=C\c2ccccc2)CN(C(=O)CC(=O)N2C/C(=C\c3ccccc3)C(=O)/C(=C/c3ccccc3)C2)C/C1=C\c1ccccc1 | 2117 | 3 | 20 | 226 | 
